# Measured values published in BindingDB's records for patent WO2022070068 (JANSSEN BIOTECH, INC., 2022).
# Values joined by “and” are separate entries in the source; they are usually repeats but may differ in a detail not shown here. Identical values can stand only once.
# Target: Dihydroorotate dehydrogenase (quinone), mitochondrial (Homo sapiens, UniProt Q02127)
# Test: DHODH enzymatic assay
# Experimental: To detect DHODH enzyme activities, dichloroindophenol (DCIP) is added as the final electron acceptor in the assay. DCIP can accept electrons from the reduced coenzyme Q generated in the assay, or from dihydroorotate (DHO) via FMN by binding presumably to the ubiquinone pocket. DCIP solutions are blue, with an intense absorbance around 600 nm, but becomes colorless upon reduction (J. Biol. Chem. (1986) 261, 11386). The assay buffer contained […], pH 7.5, 150 mM NaCl, 0.5 mM EDTA, and 0.1% Triton X-100 in MilliQ water. Substrate consisting of 20 mM DHO, 5mM CoQ6, and 1mM DCIP in assay buffer, initiates the reaction. The assay is run in end-point mode by quenching the reaction with the potent DHODH inhibitor brequinar. Absorbance measurements were obtained using the BMG Phera Star plate-reading spectrophotomer. Purified human DHODH was purchased from Proteros (cat. No. PR-0044). Chemicals were purchased from Sigma-Aldrich, Teknova, and Avanti Polar Lipids. Liquid handling was performed using Labcyte Echo and Formulatrix Tempest.
# Dihydroorotate dehydrogenase (quinone), mitochondrial, sequence (Q02127 whole entry): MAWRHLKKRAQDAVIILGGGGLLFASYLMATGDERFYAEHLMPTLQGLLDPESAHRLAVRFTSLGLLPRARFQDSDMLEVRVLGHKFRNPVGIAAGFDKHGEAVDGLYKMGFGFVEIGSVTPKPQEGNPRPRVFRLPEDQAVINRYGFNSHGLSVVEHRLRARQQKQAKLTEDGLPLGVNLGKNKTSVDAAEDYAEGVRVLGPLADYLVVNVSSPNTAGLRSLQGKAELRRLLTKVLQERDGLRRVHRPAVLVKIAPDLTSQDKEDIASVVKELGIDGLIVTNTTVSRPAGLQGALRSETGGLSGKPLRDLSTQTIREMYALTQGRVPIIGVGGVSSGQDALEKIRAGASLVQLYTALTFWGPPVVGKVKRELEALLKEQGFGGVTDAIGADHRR
row,IC50,SMILES
1,0.45 nM,"Cc1ccccc1-n1nc(C(C)C)c2cc(-c3cn(C)c(C(C)(C)O)n3)c(F)cc2c1=O [WO2022070068, Example 14]"
2,2.6 nM,"Cc1ccccc1-n1cc(C(C)C)c2cc(-c3cnc(C4CC4)cn3)c(F)cc2c1=O [WO2022070068, Example 1]"
3,0.51 nM,"Cc1ccccc1-n1cc(C(C)C)c2cc(-c3cn(C)c([C@@H](C)O)n3)c(F)cc2c1=O [WO2022070068, Example 11]"
4,2 nM,"Cc1ccnc(Cl)c1-n1cc(C(C)C)c2cc(-c3cn(C)c(C(C)(C)O)n3)c(F)cc2c1=O [WO2022070068, Example 18]"
5,2.5 nM,"Cc1ccnc(Cl)c1-n1cc(C(C)C)c2cc(-c3nc(C(C)(C)O)n(C)n3)c(F)cc2c1=O [WO2022070068, Example 19]"
6,27 nM,"CCn1nc(-c2cc3c(C(C)C)cn(-c4ccccc4C)c(=O)c3cc2F)nc1C(C)(C)O [WO2022070068, Example 20]"
7,1.6 nM and 2 nM,"Cc1ccccc1-n1cc(C(C)C)c2cc(-c3nc([C@@H](C)O)n(C)n3)c(F)cc2c1=O [WO2022070068, Example 12]"
8,19 nM,"CCn1nc(-c2cc3c(C(C)C)cn(-c4ccccc4C)c(=O)c3cc2F)nc1C(C)O (stereo not given) [WO2022070068, Example 28]"
9,1.2 nM,"COc1cc(-n2cc(C(C)C)c3cc(-c4nc(C(C)(C)O)n(C)n4)c(F)cc3c2=O)c(C)cn1 [WO2022070068, Example 26]"
10,0.38 nM and 0.54 nM,"Cc1ccccc1-n1cc(C(C)C)c2cc(-c3cn(C)c(C(C)(C)O)n3)c(F)cc2c1=O [WO2022070068, Example 23]"
11,0.71 nM,"Cc1n[nH]c(Cl)c1-n1cc(C(C)C)c2cc(-c3nc(C(C)(C)O)n(C)n3)c(F)cc2c1=O [WO2022070068, Example 17]"
12,0.48 nM and 1.1 nM,"Cc1ccccc1-n1cc(C(C)C)c2cc(-c3nc([C@H](C)O)n(C)n3)c(F)cc2c1=O [WO2022070068, Example 13]"
13,2.6 nM,"Cc1ccccc1-n1cc(C(C)C)c2cc(-c3nc(CO)n(C)n3)c(F)cc2c1=O [WO2022070068, Example 9]"
14,1.1 nM,"Cc1ccccc1-n1cc(C(C)C)c2cc(-c3nc(C(C)O)n(C)n3)c(F)cc2c1=O (racemic) [WO2022070068, Example 5]"
15,1.2 nM,"Cc1ccccc1-n1cc(C(C)C)c2cc(-c3cn(C)c(CO)n3)c(F)cc2c1=O [WO2022070068, Example 8]"
16,0.73 nM,"Cc1ccccc1-n1cc(C(C)C)c2cc(-c3cn(C)c([C@H](C)O)n3)c(F)cc2c1=O [WO2022070068, Example 10]"
17,0.18 nM,"Cc1ccccc1-n1cc(C(C)C)c2cc(-c3ccc(C)c(N)n3)c(F)cc2c1=O [WO2022070068, Example 2]"
18,2.6 nM,"Cc1ccccc1-n1nc(C(C)C)c2cc(-c3cn(C)c([C@@H](C)O)n3)c(F)cc2c1=O [WO2022070068, Example 15]"
19,0.57 nM and 0.64 nM,"Cc1ccccc1-n1cc(C(C)C)c2cc(-c3nc(C(C)(C)O)n(C)n3)c(F)cc2c1=O [WO2022070068, Example 29]"
20,1.2 nM,"COc1cc(-n2cc(C(C)C)c3cc(-c4cn(C)c(C(C)(C)O)n4)c(F)cc3c2=O)c(C)cn1 [WO2022070068, Example 25]"
21,1.7 nM,"CC(=O)c1nc(-c2cc3c(C(C)C)cn(-c4ccccc4C)c(=O)c3cc2F)nn1C [WO2022070068, Example 6]"
22,1.4 nM,"Cc1ccc(Cl)c(-n2cc(C(C)C)c3cc(-c4cn(C)c(C(C)(C)O)n4)c(F)cc3c2=O)n1 [WO2022070068, Example 27]"
23,3.6 nM,"Cc1cnc(-c2cc3c(C(C)C)cn(-c4ccccc4C)c(=O)c3cc2F)cc1N [WO2022070068, Example 3]"
24,6.2 nM,"CCn1nc(-c2cc3c(C(C)C)cn(-c4ccccc4C)c(=O)c3cc2F)nc1C(C)=O [WO2022070068, Example 24]"
25,0.51 nM,"Cc1n[nH]c(Cl)c1-n1cc(C(C)C)c2cc(-c3cn(C)c(C(C)(C)O)n3)c(F)cc2c1=O [WO2022070068, Example 16]"
